# Test results taken from the NIST ThermoML archive (doi:10.1016/j.jct.2010.11.005).
# Where “and” joins values, the source holds several entries; their conditions need not be identical. Equal values may be shown once. ± gives the expanded uncertainty stated by the source.
# What was measured:
# [1] = molar enthalpy of vaporization or sublimation; conditions: 298.15 K; Crystal; Calvet microcalorimetry
# [2] = Crystal, Calculated from knudsen effusion weight loss
Structure (SMILES),molar enthalpy [1] [kcal/mol],vapor or sublimation pressure ([2]; 349.27 K),vapor or sublimation pressure ([2]; 351.21 K),vapor or sublimation pressure ([2]; 353.12 K),vapor or sublimation pressure ([2]; 355.13 K),vapor or sublimation pressure ([2]; 357.21 K),vapor or sublimation pressure ([2]; 359.26 K),vapor or sublimation pressure ([2]; 361.26 K),vapor or sublimation pressure ([2]; 363.2 K),vapor or sublimation pressure ([2]; 365.12 K),vapor or sublimation pressure ([2]; 359.27 K),vapor or sublimation pressure ([2]; 361.19 K),vapor or sublimation pressure ([2]; 363.12 K),vapor or sublimation pressure ([2]; 365.29 K),vapor or sublimation pressure ([2]; 367.2 K),vapor or sublimation pressure ([2]; 369.12 K),vapor or sublimation pressure ([2]; 371.29 K),vapor or sublimation pressure ([2]; 373.18 K),vapor or sublimation pressure ([2]; 375.1 K)
"O=C(c1cccc([N+](=O)[O-])c1)c1cccc([N+](=O)[O-])c1 [3,3'-dinitrobenzophenone]",35.2 ± 1.86,–,–,–,–,–,–,–,–,–,–,–,–,–,–,–,–,–,–
O=C(c1ccccc1)c1cccc([N+](=O)[O-])c1 [3-nitrobenzophenone],29.5 ± 1.15,0.00016 ± 8e-06 kPa and 0.000161 ± 8e-06 kPa and 0.000162 ± 8e-06 kPa,0.000194 ± 1e-05 kPa and 0.000198 ± 1e-05 kPa,0.000248 ± 1.2e-05 kPa and 0.000245 ± 1.2e-05 kPa and 0.000244 ± 1.2e-05 kPa,0.000315 ± 1.6e-05 kPa and 0.000308 ± 1.5e-05 kPa,0.000399 ± 2e-05 kPa and 0.000396 ± 2e-05 kPa and 0.000395 ± 2e-05 kPa,0.000506 ± 2.5e-05 kPa and 0.000508 ± 2.5e-05 kPa,0.000613 ± 3.1e-05 kPa and 0.00061 ± 3.1e-05 kPa and 0.000614 ± 3.1e-05 kPa,0.000758 ± 3.8e-05 kPa and 0.000749 ± 3.8e-05 kPa and 0.000771 ± 3.9e-05 kPa,0.000936 ± 4.7e-05 kPa and 0.000935 ± 4.7e-05 kPa and 0.000946 ± 4.7e-05 kPa,–,–,–,–,–,–,–,–,–
O=C(c1ccccc1)c1ccc([N+](=O)[O-])cc1 [4-nitrobenzophenone],29.2 ± 1.29,–,–,–,–,–,–,–,–,–,0.00018 ± 9e-06 kPa and 0.000177 ± 9e-06 kPa and 0.000174 ± 9e-06 kPa,0.000215 ± 1.1e-05 kPa and 0.00021 ± 1.1e-05 kPa and 0.000214 ± 1.1e-05 kPa,0.000269 ± 1.3e-05 kPa and 0.000265 ± 1.3e-05 kPa and 0.000259 ± 1.3e-05 kPa,0.000344 ± 1.7e-05 kPa and 0.000342 ± 1.7e-05 kPa,0.000422 ± 2.1e-05 kPa and 0.00042 ± 2.1e-05 kPa and 0.000427 ± 2.1e-05 kPa,0.000512 ± 2.6e-05 kPa and 0.000509 ± 2.5e-05 kPa and 0.000523 ± 2.6e-05 kPa,0.000652 ± 3.3e-05 kPa and 0.000645 ± 3.2e-05 kPa and 0.000657 ± 3.3e-05 kPa,0.000767 ± 3.8e-05 kPa and 0.000769 ± 3.8e-05 kPa and 0.000791 ± 4e-05 kPa,0.000955 ± 4.8e-05 kPa and 0.000941 ± 4.7e-05 kPa and 0.00096 ± 4.8e-05 kPa
